Results published in patent publication US9394284B2, “Compounds act at multiple prostaglandin receptors giving a general anti-inflammatory response” (Allergan, Inc., priority 2010, dated 2016).

What was measured:
Assay type in all cases: cell-based
[1] = molecular target: T1, human prostanoid DP1 receptor (Homo sapiens, UniProt Q13258); assay: FLIPR Ca2+ signaling antagonist assay, DP1 receptor stable cell line; settings: HEK-293 EBNA stable cell line; standard agonist BW 245C; NA = inactive (no antagonism or Kb 10,000 nM); PAg, Ag not defined
T1 construct: expressed in transfected cells
T1 sequence (Q13258 1-359): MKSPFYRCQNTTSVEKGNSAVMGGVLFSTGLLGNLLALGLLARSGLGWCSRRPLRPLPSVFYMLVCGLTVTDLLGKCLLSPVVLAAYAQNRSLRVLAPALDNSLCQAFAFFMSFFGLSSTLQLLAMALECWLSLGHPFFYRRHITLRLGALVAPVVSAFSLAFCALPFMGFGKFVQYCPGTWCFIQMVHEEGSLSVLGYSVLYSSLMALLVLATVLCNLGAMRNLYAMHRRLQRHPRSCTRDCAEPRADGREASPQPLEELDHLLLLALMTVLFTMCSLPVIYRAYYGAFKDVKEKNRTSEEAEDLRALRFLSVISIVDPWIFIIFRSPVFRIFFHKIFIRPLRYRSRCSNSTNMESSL
Method in brief: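 Functional antagonism measured by Ca2+ flux at 37 °C. Agonist ranges were 10^−11 to 10^−5 M, or 10^−12 to 10^−6 M for TP with U-46619; PGE2 for EP1/EP3, BW 245C for DP1. Compound spanned 0.1–30 μM except TP, 0.067–1 μM.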

[2] = molecular target: T2, human prostanoid EP3 receptor (Homo sapiens, UniProt P43115); assay: FLIPR Ca2+ signaling antagonist assay, EP3 receptor stable cell line; settings: HEK-293 EBNA stable cell line; standard agonist PGE2; NA = inactive (no antagonism or Kb 10,000 nM); PAg, Ag not defined
T2 construct: expressed in transfected cells
T2 sequence (P43115 1-390): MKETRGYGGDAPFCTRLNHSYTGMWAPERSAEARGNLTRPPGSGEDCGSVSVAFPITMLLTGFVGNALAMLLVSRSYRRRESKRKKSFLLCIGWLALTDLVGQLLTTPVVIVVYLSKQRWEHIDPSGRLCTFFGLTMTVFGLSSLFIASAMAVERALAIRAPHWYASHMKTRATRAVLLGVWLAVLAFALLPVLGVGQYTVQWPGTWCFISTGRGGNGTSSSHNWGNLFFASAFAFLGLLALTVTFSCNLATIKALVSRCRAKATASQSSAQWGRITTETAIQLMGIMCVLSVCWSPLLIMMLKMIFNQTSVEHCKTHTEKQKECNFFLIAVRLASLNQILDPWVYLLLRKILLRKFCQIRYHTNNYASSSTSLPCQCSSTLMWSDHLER
Experimental: The above compounds were tested for PG antagonist activity as follows using human recombinant prostanoid receptor (DP1, EP1-4, FP, IP and TP) stable cell lines:
In order to measure the response of Gs and Gi coupled prostanoid receptors as a Ca^2+ signal, chimeric G protein cDNAs were used. Stable cell lines over-expressing human prostanoid DP1, EP1-4, FP, IP, and TP receptors were established as follows:
Briefly, human prostanoid DP1, EP2, and EP4 receptor cDNAs were co-transfected with chimeric Gqs cDNA containing a haemagglutanin (HA) epitope; human prostanoid EP3 receptors were co-transfected with chimeric Gqi-HA; human EP1, FP, IP, and TP receptor cDNAs were expressed with no exogenous G-proteins. Gqs and Gqi chimeric cDNAs (Molecular Devices, Sunnyvale, Calif., U.S.A.), as well as cDNAs of prostanoid receptors, were cloned into a pCEP4 vector with a hygromycin B selection marker. Transfection into HEK-293 EBNA (Epstein-Barr virus nuclear antigen) cells was achieved by the FuGENE 6 transfection Reagent (Roche Applied Science, Indianapolis, Ind., USA). Stable transfectants were selected according to hygromycin resistance. Because Gqs and Gqi contained an HA epitope, G-protein expression was detected by Western blotting analysis using anti-mouse HA monoclonal antibody and horseradish peroxidase (HRP)-conjugated secondary antibody, while functional expression of prostanoid receptors was detected by FLIPR screening (Matias et al., 2004). These stable cell lines were validated using previously published antagonists at 10 μM against serial dilutions of standard agonists by FLIPR functional assays for Ca^2+ Signaling (as described below).
Ca^2+ signaling studies were performed using a FLIPR TETRA system (Molecular Devices, Sunnyvale, Calif., USA) in the 384-format. This is a high-throughput instrument for cell-based assays to monitor Ca^2+ signaling associated with GPCRs and ion channels. Cells were seeded at a density of 5×10^4 cells/well in BioCoat poly-D-lysine coated, black wall, clear bottom 384-well plates (BD Biosciences, Franklin lakes, NJ, USA) and allowed to attach overnight in an incubator at 37° C. The cells were then washed twice with HBSS-HEPES buffer (Hanks' balanced salt solution without bicarbonate and phenol red, 20 mM HEPES, pH 7.4) using an ELx405 Select CW Microplate Washer (BioTek, Winooski, Vt., USA). After 60 min of dye-loading in the dark using the Ca^2+-sensitive dye Fluo-4AM (Invitrogen, Carlsbad, Calif., USA), at a final concentration of 2×10^−6M, the plates were washed 4 times with HBSS-HEPES buffer to remove excess dye and leaving 50 μl of buffer in each well. The plates were then placed in the FLIPR TETRA instrument and allowed to equilibrate at 37° C. AGN-211377 was added in a 25 μl volume to each well to give final concentrations of 0.1 μM, 0.3 μM, 1 μM, 3 μM, 10 μM, and 30 μM; or 0.067 μM, 0.1 μM, 0.2 μM, 0.3 μM, 0.67 μM, and 1 μM for cells over-expressing TP receptors. After 4.5 minutes, a 7-point serial dilution of the standard agonist for the corresponding receptor, in a 25 μl volume was injected at the final concentrations from 10^−11M to 10^−5M in 10-fold serial dilution increments for cells expressing human recombinant DP1, EP1, EP2, EP3, EP4, FP, and IP receptors. The dose range for the standard agonist for human recombinant TP receptors was from 10^−12 M to 10^−6 M. HBSS-HEPES buffer was used as the negative control for the standard agonists. Cells were excited with LED (light emitting diode) excitation at 470-495 nm and emission was measured through an emission filter at 515-575 nm. Assay plates were read for 3.5 minutes using the FLIPR^TETRA. The peak increase in fluorescence intensity was recorded for each well. On each plate, negative controls, dose response of positive controls, and co-treatments of antagonist-agonist for each dose were in triplicates.
Standard agonists were as follows: DP=BW 245C, EP1-EP4=PGE2, FP=17-phenyl-PGF2α, IP=Cicaprost, and TP=U-46619. […]

[3] = molecular target: T3, human prostanoid FP receptor (Homo sapiens, UniProt P43088); assay: FLIPR Ca2+ signaling antagonist assay, FP receptor stable cell line; settings: HEK-293 EBNA stable cell line; standard agonist 17-phenyl-PGF2α; NA = inactive (no antagonism or Kb 10,000 nM); PAg, Ag not defined
T3 construct: expressed in transfected cells
T3 sequence (P43088 whole entry): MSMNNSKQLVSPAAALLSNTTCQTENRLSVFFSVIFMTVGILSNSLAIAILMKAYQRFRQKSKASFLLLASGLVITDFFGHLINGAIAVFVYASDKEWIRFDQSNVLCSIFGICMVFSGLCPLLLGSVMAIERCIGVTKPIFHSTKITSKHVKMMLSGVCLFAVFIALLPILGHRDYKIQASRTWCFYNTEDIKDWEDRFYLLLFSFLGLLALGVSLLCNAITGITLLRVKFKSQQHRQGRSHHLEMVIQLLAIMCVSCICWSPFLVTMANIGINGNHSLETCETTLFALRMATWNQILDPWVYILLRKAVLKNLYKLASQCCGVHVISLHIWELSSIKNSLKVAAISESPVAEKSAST
Method in brief: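 Peak Fluo-4 fluorescence (ex 470–495, em 515–575 nm) was read for 3.5 min on FLIPR after agonist injection and expressed relative to 10^−6 M standard agonist. Cells were HEK-293 EBNA transfectants. Test compound was added 4.5 min beforehand at 0.1–30 μM, or 0.067–1 μM for TP.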

| SMILES | Kb [1] [nM] | Kb [2] [µM] | Kb [3] [nM] |
| --- | --- | --- | --- |
| Cc1cc(CCC(=O)NS(=O)(=O)CC(F)(F)F)nn1Cc1cc(Cl)ccc1OCc1ccc(Cl)cc1 [Example 25, 2,2,2-trifluoroethanesulfonic acid-(3-[1-(5-Chloro-2-(4-chlorobenzyloxy)benzyl)-5-methyl-1H-pyrazol-3-yl]-propionyl)amide] | 1330 | 4.5 | 400 |
| Cc1cc(CCC(=O)O)nn1Cc1cc(Br)ccc1OCC1(C(F)(F)F)CCC1 [Example 13, 3-[1-(5-Bromo-2-(1-trifluoromethylcyclobutylmethoxy)-benzyl)-5-methyl-1H-pyrazol-3-yl]-propionic acid] | 900 | 8.3 | 100 |
| Cc1cc(CCC(=O)NS(=O)(=O)c2ccccc2)nn1Cc1cc(Cl)ccc1OCc1ccc(Cl)cc1 [Example 24, N-(3-[1-(5-Chloro-2-(4-chlorobenzyloxy)benzyl)-5-methyl-1H-pyrazol-3-yl]-propionyl)benzenesulfonamide] | 800 | 2.5 | 800 |
| Cc1cc(CCC(=O)NS(=O)(=O)C(F)(F)F)nn1Cc1cc(Cl)ccc1CCC1CCCC1 [Example 75] | 350 | 1.6 | 1500 |
| Cc1cc(CCC(=O)O)nn1Cc1cc(C(F)(F)F)ccc1OCc1ccc(Cl)cc1 [Example 52, 3-[1-[2-(4-Chloro-benzyloxy)-5-trifluoromethyl-benzyl]-5-methyl-1H-pyrazol-3-yl]-propionic acid] | 100 | 2.8 | 30 |
| Cc1cc(CCC(=O)O)nn1Cc1cc(Cl)ccc1OCc1ccc(Cl)cc1Cl [Example 26, 3-[1-(5-Chloro-2-(2,4-dichlorobenzyloxy)benzyl)-5-methyl-1H-pyrazol-3-yl]-propionic acid] | 500 | 7.1 | 140 |
